Measurements published in patent US9475805B2, “Tricyclic compound” (Kyowa Hakko Kirin Co., Ltd., priority 2008, dated 2016).

Target: T1, PPAR γ (Homo sapiens, UniProt P37231)
T1 construct: expressed in transfected cells; host or cells: HEK293EBNA
T1 sequence (P37231 174-475 isoform P37231-2): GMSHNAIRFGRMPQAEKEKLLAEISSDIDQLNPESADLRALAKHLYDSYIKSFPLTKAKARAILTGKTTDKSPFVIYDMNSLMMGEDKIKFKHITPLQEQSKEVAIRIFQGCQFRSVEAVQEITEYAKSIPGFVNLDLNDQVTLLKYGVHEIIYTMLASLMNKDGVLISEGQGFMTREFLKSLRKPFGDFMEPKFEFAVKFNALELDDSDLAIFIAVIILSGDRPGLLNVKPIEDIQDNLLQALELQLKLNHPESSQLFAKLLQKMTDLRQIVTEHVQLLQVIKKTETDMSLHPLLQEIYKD
Experiment: PPAR γ activation action based on transactivation assay of PPAR γ by transient gene transfer (GAL4-PPAR γ chimeric receptor, luciferase reporter, HEK293EBNA cells)
Assay type: cell-based
Details: concentration showing 50% of the compound's own efficacy (maximum activity rate relative to pioglitazone 10 μmol/L = 100%), 24 hr
Protocol: The agonist activity of compound (I) to PPAR γ was determined by a transactivation assay method using a chimeric nuclear receptor of a DNA binding region of a yeast transcription factor GAL4 and a PPAR γ ligand binding region. Specifically, the PPAR γ agonist activity of compound (I) was evaluated by the following method based on the method of Lehmann et al. (J Biol Chem., 1995, vol. 270, page 12953).
HEK293EBNA cells cultured in Dulbecco's Modified Eagle medium (Invitrogen) containing 10 v/v % fetal calf serum (Invitrogen) were used. 30 mL of the above-mentioned cells (density: 1×10^5 cells/mL) were inoculated in a […] (Iwaki Glass), and cultured overnight. Using SuperFect Transfection Reagent (QIAGEN), a plasmid expressing a GAL4-PPAR γ chimeric nuclear receptor fusing 174-475 amino acids, which are human PPAR γ ligand binding region, and 1-147 amino acids, which are GAL4 DNA binding region, and a reporter plasmid expressing a GAL4 responsive luciferase were transiently introduced into the cells at a proportion of 4:1. After 5 hr from transfection, the cells were detached from the culture dish, and the detached cells (density: 2×10^4 cells/mL) were inoculated by 100 μL in each well of a 96 well white plate (SUMITOMO BAKELITE), and cultured overnight. The medium was removed, compound (I) diluted in various concentrations with serum-free Dulbecco's Modified Eagle medium was added by 100 μL, and the mixture was reacted under a 5% carbon dioxide gas stream (5% CO2) at 37° C. for 24 hr. On the other hand, as a positive control, 10 μmol/L of pioglitazone (100 μL) was added, and the mixture was reacted under a 5% carbon dioxide gas stream (5% CO2) at 37° C. for 24 hr. As a substrate of luciferase, 100 μL of Steady-Glo (Promega) was added to each well and the mixture was thoroughly stirred. Immediately thereafter, the chemical luminescence due to luciferase was measured using TopCount NTX (Packard).
The agonist activity (activity rate (%)) of compound (I) to PPAR γ was calculated according to the following formula, as a relative activity when the agonist activity on addition of pioglitazone (10 μmol/L) was 100%.

SMILES | EC50
CCCc1nc2ccccc2n1Cc1ccc2c(c1)COc1ccc(F)cc1/C2=C(\C)c1noc(=O)[nH]1 [Compound 116, (E)-2-Fluoro-8-(2-propylbenzimidazol-1-yl)methyl-11-[1-(5-oxo-4,5-dihydro-1,2,4-oxadiazol-3-yl)ethylidene]-6,11-dihydrodibenzo[b,e]oxepine] | 12 nM
C/C(=C1\c2ccccc2OCc2nc(Cn3c(C4CC4)nc4c(Cl)ccnc43)ccc21)c1noc(=O)[nH]1 [Compound 119, (E)-2-(7-Chloro-2-cyclopropyl-3H-imidazo[4,5-b]pyridin-3-yl)methyl-5-[1-(5-oxo-4,5-dihydro-1,2,4-oxadiazol-3-yl)ethylidene]-5,11-dihydrobenzooxepino[3,4-b]pyridine] | 314 nM
